Source: US20130052145A1, “ADHESIVE SLOW-RELEASE FORMULATIONS FOR THE LOCAL ADMINISTRATION OF CURCUMIN” (Orphanidis Pharma Research GmbH, priority 2010, published 2013)

How the values were obtained:
[1] = Storage stability of liquid curcumin formulations under accelerated conditions (HPLC); format: physicochemical
[2] = Solubility studies with curcumin in organic solvents and solvent + water mixtures; format: physicochemical
Method: For oral solutions, curcumin must be dissolved. The solvents listed in Table 1 have been tested for this purpose. The maximum concentration of curcumin that could be dissolved is listed for each solvent. If curcumin was soluble, water was added to the solvents and the solubility in this mixture was also determined: […]

COc1cc(/C=C/C(=O)CC(=O)/C=C/c2ccc(O)c(OC)c2)ccc1O [curcumin]
4 % (w/v): % Solubility (w/v) ([2]; N-Ethyl-2-pyrrolidone + water 6 + 4) | % Solubility (w/v) ([2]; N-Methyl-2-pyrrolidone + water 6 + 4) | % Solubility (w/v) ([2]; N-Methyl-2-pyrrolidone + water 7 + 3) | % Solubility (w/v) ([2]; solvent Dimethylacetamide)
30 % (w/v): % Solubility (w/v) ([2]; solvent N-Ethyl-2-pyrrolidone) | % Solubility (w/v) ([2]; solvent N-Methyl-2-pyrrolidone)
5 % (w/v): % Solubility (w/v) ([2]; N-Ethyl-2-pyrrolidone + water 7 + 3) | % Solubility (w/v) ([2]; Pyrrolidone + water 7 + 3) | % Solubility (w/v) ([2]; Pyrrolidone + water 9 + 1)
20 % (w/v): % Solubility (w/v) ([2]; solvent Pyrrolidone)
2.5 % (w/v): % Solubility (w/v) ([2]; PEG 300 + water 8 + 2) | % Solubility (w/v) ([2]; PEG 300 + water 9 + 1) | % Solubility (w/v) ([2]; Pyrrolidone + water 5 + 5) | % Solubility (w/v) ([2]; solvent PEG 300)
1 % (w/v): % Solubility (w/v) ([2]; Pyrrolidone + water 1 + 9)
3 % (w/v): % Solubility (w/v) ([2]; Pyrrolidone + water 6 + 4) | % Solubility (w/v) ([2]; solvent Labrafil) | % Solubility (w/v) ([2]; solvent Pluronic L44)
comparatively high stability in storage: Stability in storage of curcumin in PEG formulations [1]
0 % (w/v): % Solubility (w/v) ([2]; Collidone 12 + water 4 + 6) | % Solubility (w/v) ([2]; Collidone12 + water 5 + 5) | % Solubility (w/v) ([2]; Collidone 17 + water 4 + 6) | % Solubility (w/v) ([2]; Collidone 17 + water 5 + 5) | % Solubility (w/v) ([2]; PVP + water 3 + 7) | % Solubility (w/v) ([2]; Pluronic F-68 + water 3 + 7) | % Solubility (w/v) ([2]; solvent Capmul) | % Solubility (w/v) ([2]; solvent Cremophor) | % Solubility (w/v) ([2]; solvent Glycerol) | % Solubility (w/v) ([2]; solvent Hydrogenated peanut oil) | % Solubility (w/v) ([2]; solvent Labrasol) | % Solubility (w/v) ([2]; solvent PVA) | % Solubility (w/v) ([2]; solvent Propylene glycol) | % Solubility (w/v) ([2]; solvent Refined corn oil)
